Data on ten compounds can be found in US6008220A, “Aromatic keto-acids and their derivatives as inhibitors of matrix metalloproteinases” (priority 1998, dated 1999).

The target in assay [1] is SCD (stromelysin-1 catalytic domain) (Homo sapiens, UniProt P08254). As to the kind of experiment: Inhibition of stromelysin-1 catalytic domain (SCD), thiopeptolide substrate Ac-Pro-Leu-Gly-thioester-Leu-Leu-Gly-OEt. It is filed as biochemical. As to the method:
Experiments were carried out with the catalytic domains of the proteinases. […] IC50 values were determined using a thiopeptolide substrate, Ac-Pro-Leu-Gly-thioester-Leu-Leu-Gly-OEt (Ye Q.-Z., Johnson L. L., Hupe D. J., and Baragi V., "Purification and Characterization of the Human Stromelysin Catalytic Domain Expressed in Escherichia coli", Biochemistry, 1992;31:11231-11235).

Assay [2] concerns the target GCD (recombinant gelatinase A catalytic domain). As to the kind of experiment: Inhibition of recombinant gelatinase A catalytic domain (GCD), thiopeptolide substrate Ac-Pro-Leu-Gly-thioester-Leu-Leu-Gly-OEt. The class given is biochemical. The procedure: Experiments were carried out with the catalytic domains of the proteinases.
Assay [3] deals with human ovarian carcinoma xenografts. The conditions noted are these: mice bearing human ovarian carcinoma xenografts; cited from earlier work. In general terms: In xenograft studies the graft and the host belong to different species.
Assay [4] relates to experimental allergic encephalomyelitis (EAE). To be noted: dose dependent; cited from earlier work.
The test system of another assay is bovine nasal cartilage. The conditions noted are these: cited from earlier work.
For another assay, the system named is pig articular cartilage. To be noted: cited from earlier work.

pIC50: −log10 of the molar value. Where a name gives a salt, the structure may show the parent alone. Read-outs that look alike come from different tables or passages of the source.

SCD (stromelysin-1 catalytic domain), sequence (P08254 100-272 limits assumed): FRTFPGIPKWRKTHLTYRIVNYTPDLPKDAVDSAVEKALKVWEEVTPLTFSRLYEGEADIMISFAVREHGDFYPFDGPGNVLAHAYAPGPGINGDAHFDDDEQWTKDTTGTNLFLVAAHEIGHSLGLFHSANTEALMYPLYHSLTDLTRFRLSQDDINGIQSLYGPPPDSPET

As for `CC(CC(=O)O)CC(=O)c1ccc(N2CCC(c3ccccc3)CC2)cc1` (racemic) [Example 7, (±)3-Methyl-5-oxo-5-[4-(4-phenyl-piperidin-1-yl)-phenyl]-pentanoic acid], the pIC50 was 6.40 in assay [1] and 4.85 in assay [2].

On to `CNC(=O)[C@H](Cc1ccccc1)NC(=O)[C@H](CC(C)C)[C@H](CSc1cccs1)C(=O)NO` [BB-94], for which, in assay [3], the survival result is reported as “prolonged the survival” and the tumor burden result was “decreased the tumor burden”.

In the case of `O=C(O)CCC(=O)c1ccc(N2CCC(c3ccccc3)CC2)cc1` [Example 1, 4-Oxo-4-[4-(4-phenyl-piperidin-1-yl)-phenyl]-butyric acid], the pIC50 in assay [2] is 5.89.

As to `O=C(CCC(=O)c1ccc(N2CCC(c3ccccc3)CC2)cc1)NO` [Example 3, N-Hydroxy-4-oxo-4-[4-(4-phenyl-piperidin-1-yl)-phenyl]-butyramide], the pIC50 in assay [2] is 7.40.

For the compound `O=C(O)CCC(=NO)c1ccc(N2CCC(c3ccccc3)CC2)cc1` [Example 4, E/Z-4-Hydroxyimino-4-[4-(4-phenyl-piperidin-1-yl)-phenyl]-butyric acid], the pIC50 in assay [1] was 7.70; in assay [2] it was 6.82.

In the case of `O=C(O)CCC(=NOCc1ccccc1)c1ccc(N2CCC(c3ccccc3)CC2)cc1` [Example 5, E/Z-4-Benzyloxyimino-4-[4-(4-phenyl-piperidin-1-yl)-phenyl]-butyric acid], the negative logarithm of the IC50 (pIC50) in assay [1] was 5.54; in assay [2] it was 5.20.

Take `O=C(O)CCC(=O)c1ccc(N2CCN(c3ccccc3)CC2)cc1` [Example 6, 4-Oxo-4-[4-(4-phenyl-piperazin-1-yl)-phenyl]-butyric acid]: the pIC50 in assay [2] was 5.80.

`CNC(=O)[C@H](Cc1c[nH]c2ccccc12)NC(=O)[C@@H](CC(=O)NO)CC(C)C` [GM6001]: the “development or clinical expression of EAE” value in assay [4] is “suppressed the development or reversed the clinical expression”.

On to `O=C(O)CCC(=O)c1ccc(N2CCC(c3ccccc3)CC2)cc1` [potassium salt], for which the pIC50 in assay [1] is 7.10; in assay [2] (potassium salt), 6.25.

Take “TIMP-1: natural endogenous inhibitors of MMPs (TIMPs)”: the “formation of collagen fragments” value in the assay with bovine nasal cartilage and in the assay with pig articular cartilage was “prevented the formation of collagen fragments” each time. Further, the “formation of proteoglycan fragments” value with bovine nasal cartilage and with pig articular cartilage was “not proteoglycan fragments” each time.

As usually defined, the pIC50 is −log10 of the IC50, conventionally taken in molar units.
